The values below come from ChEMBL document CHEMBL1130659, “Macrolide biosynthesis: a single cytochrome P450, PicK, is responsible for the hydroxylations that generate methymycin, neomethymycin, and picromycin in Streptomyces venezuelae” (Bioorg Med Chem Lett, 1998).

Holding throughout (assay type): ADME
A short description of data set [1]: Ratio of kcat to Km was evaluated.
Data set [2] is described as follows: Kinetic behavior of the enzyme (PicK/6-His) was evaluated.
A short description of data set [3]: Michaelis behavior of the enzyme (PicK/6-His).
Data set [4] in a line: Catalytic constant expressed as Kinetic behavior of enzyme (PicK/6-His).

Structures are written as SMILES.

As for `CC[C@H]1OC(=O)[C@H](C)[C@@H](O[C@@H]2O[C@H](C)C[C@H](N(C)C)[C@H]2O)[C@@H](C)C[C@@H](C)C(=O)/C=C/[C@H]1C`, the specificity constant (kcat/Km) in data set [1] was 8000 M⁻¹ s⁻¹. Besides, the Michaelis-Menten constant (Km) in data set [2] came out at 2200 µM; in data set [3], 130 µM. In data set [4], this molecule yielded a k cat of 1.1 s⁻¹.

With `CC[C@H]1OC(=O)[C@H](C)C(=O)[C@H](C)[C@@H](O[C@@H]2O[C@H](C)C[C@H](N(C)C)[C@H]2O)[C@@H](C)C[C@@H](C)C(=O)/C=C/[C@H]1C`, in data set [1], the kcat/Km came out at 23000 M⁻¹ s⁻¹. The results for the Michaelis constant (Km) in data set [2] and in data set [3] were 440 µM and 88 µM, respectively. For the same molecule, in data set [4], the k cat is 2 s⁻¹.
